Source: patent publication US20040033972A1, “Treatment of mycobacterium tuberculosis with antisense polynucleotides” (priority 2002, published 2004)
Converted amounts (≈) assume the structure as drawn. Read-outs that look alike come from different tables or passages of the source. Where a SMILES comes first, the peptide text is derived from it.

What was measured:
M. tuberculosis = conditions: cited from earlier work
[1] = system: poly-L-glutamate/glutamine cell wall structure; conditions: 20 μM; cited from earlier work
[2] = biological target: extracellular glutamine synthetase (Mycobacterium tuberculosis, UniProt P9WN39); conditions: 20 μM; cited from earlier work
M. tuberculosis Erdman [3] = assay: Growth of M. tuberculosis Erdman broth cultures (colony forming units); assay type: cell-based
M. tuberculosis Erdman [4] = assay: microbe, parasite or virus in culture; conditions: Mycobacterium tuberculosis
M. smegmatis 1-2c [5] = assay: microbe, parasite or virus in culture; conditions: Mycolicibacterium smegmatis, 12C
M. smegmatis 1-2c [6] = system: M. smegmatis 1-2c
M. tuberculosis Erdman [7] = system: M. tuberculosis Erdman

extracellular glutamine synthetase, sequence (P9WN39 2-478 limits assumed): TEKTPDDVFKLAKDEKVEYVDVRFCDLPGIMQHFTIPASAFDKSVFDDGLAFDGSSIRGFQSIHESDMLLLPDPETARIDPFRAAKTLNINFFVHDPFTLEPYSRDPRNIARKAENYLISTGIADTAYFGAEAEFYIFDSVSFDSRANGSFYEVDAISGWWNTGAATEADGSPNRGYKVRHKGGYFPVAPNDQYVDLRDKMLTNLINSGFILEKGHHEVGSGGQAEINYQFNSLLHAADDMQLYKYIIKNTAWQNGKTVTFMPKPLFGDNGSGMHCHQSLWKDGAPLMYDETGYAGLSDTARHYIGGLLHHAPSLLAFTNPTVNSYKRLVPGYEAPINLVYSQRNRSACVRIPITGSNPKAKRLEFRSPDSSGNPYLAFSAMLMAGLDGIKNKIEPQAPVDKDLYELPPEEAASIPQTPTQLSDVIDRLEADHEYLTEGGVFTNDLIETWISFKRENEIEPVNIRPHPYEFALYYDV

SMILES: CS(=N)(=O)CC[C@H](N)C(=O)O (stereo partly drawn) [L-methionine-S-sulfoximine]
- inhibition of bacterial growth (M. tuberculosis; 2 μM): 1.5-2 log units
- reduction of bacterial growth (M. tuberculosis; 20 μM): ≥ 2.5 log units
- reduction of the amount of the poly-L-glutamate/glutamine cell wall structure [1]: 93%
- reduction of extracellular glutamine synthetase activity [2]: 80%

SMILES: NCC[C@H](O)C(=O)N[C@@H]1C[C@H](N)[C@@H](O[C@H]2O[C@H](CN)[C@@H](O)[C@H](O)[C@H]2O)[C@H](O)[C@H]1O[C@H]1O[C@H](CO)[C@@H](O)[C@H](N)[C@H]1O [amikacin]
- antibacterial effect of free amikacin (M. tuberculosis Erdman [3]; 1 μM): bacteriostatic
- antibacterial effect of free amikacin (M. tuberculosis Erdman [3]; 5.8 μg per ml (10 μM)): strongly bactericidal

SMILES: CC[C@@H](CO)NCCN[C@@H](CC)CO [ethambutol]
- MIC (M. tuberculosis Erdman [4]): ~5 µg/mL (≈ 24.5 µM)
- MIC (M. smegmatis 1-2c [5]): ~0.01 µg/mL (≈ 0.0489 µM)

SMILES: CC(C)C[C@@H]1NC(=O)[C@@H](Cc2ccccc2)NC(=O)[C@H](CCN)NC(=O)[C@@H](NC(=O)[C@H](CCN)NC(=O)[C@@H](N)[C@@H](C)O)CCNC(=O)[C@H]([C@@H](C)O)NC(=O)[C@H](CCN)NC(=O)[C@H](CCN)NC1=O [polymyxin B nonapeptide] (HELM PEPTIDE1{T.[Dab].[Dab].[Dab].[dF].L.[Dab].[Dab].T}$PEPTIDE1,PEPTIDE1,3:R3-9:R2$$$V2.0; N-terminus assumed)
- MIC (M. smegmatis 1-2c [6]): ~5 µg/mL (≈ 5.19 µM)
- MIC (M. tuberculosis Erdman [7]): ~5 µg/mL (≈ 5.19 µM)
